According to patent publication US20250388574A1, “HETEROCYCLIC COMPOUNDS AS TRIGGERING RECEPTOR EXPRESSED ON MYELOID CELLS 2 AGONISTS AND METHODS OF USE” (AMGEN INC., priority 2020, published 2025):

Biological target: hTREM2 (Homo sapiens, UniProt Q9NZC2)
Experiment: Phospho-Syk AlphaScreen/AlphaLISA assay in TREM2 and DAP12 overexpressing HEK293 cells (Example A1)
Assay type: cell-based
Parameters: expressed in transfected cells
Conditions: HEK293 cells; for EC50: read-out: hTREM2 EC50
How it was run: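 Single-cell-cloned HEK293 stably overexpressing TREM2 and DAP12, plated 20,000 cells/well for 20 h, then exposed to compounds (1% DMSO) 45 min at room temperature. Lysates probed for phospho-Syk by AlphaLISA sandwich (anti-pSyk, biotinylated anti-Syk); signal normalized to percent of control (100 nM anti-TREM2 antibody vs isotype) and fitted by 4-parameter logistic.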

Chain of hTREM2 (Q9NZC2 19-230): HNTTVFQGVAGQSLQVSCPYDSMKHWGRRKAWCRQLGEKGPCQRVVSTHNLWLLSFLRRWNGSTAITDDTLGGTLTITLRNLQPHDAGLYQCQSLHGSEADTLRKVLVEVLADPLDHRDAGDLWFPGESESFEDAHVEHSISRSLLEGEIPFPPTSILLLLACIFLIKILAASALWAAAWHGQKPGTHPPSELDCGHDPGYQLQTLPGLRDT
Chain of hTREM2 (O43914 22-113 partner): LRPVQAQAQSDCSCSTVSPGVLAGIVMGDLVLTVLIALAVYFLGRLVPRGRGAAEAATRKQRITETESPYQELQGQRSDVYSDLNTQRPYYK

**Q.** Cc1nc2cc(N3CCO[C@@H](c4ccsc4)C3)nc(-c3ccc(Cl)cc3F)c2c(=O)n1C (single isomer, unassigned) [Example 55] was tested. Which Emax did it give?
**A.** ++++ (Emax>300)

**Q.** And the EC50?
**A.** 0.5 to 3 µM

**Q.** Which Emax does the source give for Cc1nc2cc(N3CCOC(c4noc(-c5ccccc5)n4)C3)nc(-c3ccc(Cl)cc3F)c2c(=O)n1C (stereo not drawn) [Example 93, 5-(4-chloro-2-fluorophenyl)-2,3-dimethyl-7-(2-(5-phenyl-1,2,4-oxadiazol-3-yl)-4-morpholinyl)pyrido[4,3-d]pyrimidin-4(3H)-one] here?
**A.** +++ (Emax>200 and ≤300)

**Q.** What about the EC50 of the same molecule?
**A.** 0.5 to 3 µM

**Q.** Which results are given for Cc1nc2cc(N3CCC[C@H](c4ccncc4)C3)nc(-c3ccc(Cl)cc3F)c2c(=O)n1C [Example 233, (R)-5-(4-chloro-2-fluorophenyl)-2,3-dimethyl-7-(3-(pyridin-4-yl)piperidin-1-yl)pyrido[4,3-d]pyrimidin-4(3H)-one]?
**A.** Emax: ++++ (Emax>300); EC50: 0.05 to 0.5 µM

**Q.** Which results are given for Cc1nc2cc(N3C[C@@H](c4ccsc4)O[C@@H](C)C3)nc(-c3ccc(Cl)cc3F)c2c(=O)n1C (single isomer, unassigned) [Example 72]?
**A.** Emax: ++++ (Emax>300); EC50: 0.5 to 3 µM

**Q.** CCn1c(C)nc2cc(N3CCO[C@@H](c4ccnc(C)c4)C3)nc(-c3ccc(F)cc3F)c2c1=O [Example 150, 5-(2,4-difluorophenyl)-3-ethyl-2-methyl-7-((2S)-2-(2-methyl-4-pyridinyl)-4-morpholinyl)pyrido[4,3-d]pyrimidin-4(3H)-one] was tested. Which Emax did it give?
**A.** +++ (Emax>200 and ≤300)

**Q.** And the EC50?
**A.** < 0.05 µM

**Q.** Which results are given for CCc1nnc([C@@H]2CN(c3cc4nc(C)n(C)c(=O)c4c(-c4ccc(Cl)cc4F)n3)CCO2)[nH]1 [Example 241, (S)-5-(4-chloro-2-fluorophenyl)-7-(2-(5-ethyl-4H-1,2,4-triazol-3-yl)morpholino)-2,3-dimethylpyrido[4,3-d]pyrimidin-4(3H)-one]?
**A.** Emax: +++ (Emax>200 and ≤300); EC50: 3 to 100 µM

**Q.** With Cc1ccc(C2CC(c3cc4nc(C)n(C)c(=O)c4c(-c4ccc(Cl)cc4F)n3)CCO2)cn1 (stereo not drawn) [Example 171, 5-(4-chloro-2-fluorophenyl)-2,3-dimethyl-7-(2-(6-methylpyridin-3-yl)tetrahydro-2H-pyran-4-yl)pyrido[4,3-d]pyrimidin-4(3H)-one] as the molecule, how does the Emax read?
**A.** +++ (Emax>200 and ≤300)

**Q.** And the EC50?
**A.** 0.05 to 0.5 µM

**Q.** Which results are given for Cc1ccc([C@@H]2C[C@H](c3cc4nc(C)n(C)c(=O)c4c(-c4ccc(Cl)cc4F)n3)CCO2)cn1 [Example 274, 5-(4-chloro-2-fluorophenyl)-2,3-dimethyl-7-((2S,4R)-2-(6-methylpyridin-3-yl)tetrahydro-2H-pyran-4-yl)pyrido[4,3-d]pyrimidin-4(3H)-one]?
**A.** Emax: ++++ (Emax>300); EC50: 0.05 to 0.5 µM

**Q.** What does the source list for Cc1nc2cc(N3CCCC(c4cnco4)C3)nc(-c3ccc(Cl)cc3F)c2c(=O)n1C (stereo not drawn) [Example 105, 5-(4-chloro-2-fluorophenyl)-2,3-dimethyl-7-(3-(1,3-oxazol-5-yl)-1-piperidinyl)pyrido[4,3-d]pyrimidin-4(3H)-one]?
**A.** Emax: ++++ (Emax>300); EC50: 0.05 to 0.5 µM

**Q.** With Cc1nc2cc(N3CCO[C@@H](c4cnn(C)c4)C3)nc(-c3ccc(Cl)c(F)c3)c2c(=O)n1C [Example 7, 5-(4-chloro-3-fluorophenyl)-2,3-dimethyl-7-((2S)-2-(1-methyl-1H-pyrazol-4-yl)-4-morpholinyl)pyrido[4,3-d]pyrimidin-4(3H)-one] as the molecule, how does the Emax read?
**A.** ++++ (Emax>300)

**Q.** What about the EC50 of the same molecule?
**A.** 0.05 to 0.5 µM

**Q.** With Cn1cc([C@H]2CN(c3cc4ncn(C)c(=O)c4c(-c4ccc(Cl)cc4F)n3)CCO2)cn1 [Example 158, 5-(4-chloro-2-fluorophenyl)-3-methyl-7-((2S)-2-(1-methyl-1H-pyrazol-4-yl)-4-morpholinyl)pyrido[4,3-d]pyrimidin-4(3H)-one] as the molecule, how does the Emax read?
**A.** +++ (Emax>200 and ≤300)

**Q.** And the EC50?
**A.** 0.5 to 3 µM

**Q.** For Cc1nc2cc(N3CCC[C@@H](c4ccncc4)C3)nc(-c3ccc(Cl)cc3F)c2c(=O)n1C (single isomer, unassigned) [Example 113], which Emax is on record?
**A.** ++++ (Emax>300)

**Q.** And the EC50?
**A.** 0.05 to 0.5 µM

**Q.** Which Emax does the source give for Cc1nc2cc(N3CCO[C@H](c4cccnc4)C3)nc(-c3ccc(Cl)cc3F)c2c(=O)n1C [Example 210, (R)-5-(4-chloro-2-fluorophenyl)-2,3-dimethyl-7-(2-(pyridin-3-yl)morpholino)pyrido[4,3-d]pyrimidin-4(3H)-one] here?
**A.** ++++ (Emax>300)

**Q.** What about the EC50 of the same molecule?
**A.** 0.05 to 0.5 µM

**Q.** Which results are given for Cc1nc2cc(N3CCO[C@@H](c4cnn(C)c4)C3)nc(-c3ccc(F)c(F)c3F)c2c(=O)n1C [Example 9, 2,3-dimethyl-7-((2S)-2-(1-methyl-1H-pyrazol-4-yl)-4-morpholinyl)-5-(2,3,4-trifluorophenyl)pyrido[4,3-d]pyrimidin-4(3H)-one]?
**A.** Emax: +++ (Emax>200 and ≤300); EC50: 0.05 to 0.5 µM

**Q.** Which Emax does the source give for Cc1nc2cc(N3CCO[C@@H](c4cnn(C5CN(C(=O)OC(C)(C)C)C5)c4)C3)nc(-c3ccc(Cl)cc3F)c2c(=O)n1C [Example 134, 2-methyl-2-propanyl 3-(4-((2S)-4-(5-(4-chloro-2-fluorophenyl)-2,3-dimethyl-4-oxo-3,4-dihydropyrido[4,3-d]pyrimidin-7-yl)-2-morpholinyl)-1H-pyrazol-1-yl)-1-azetidinecarboxylate] here?
**A.** ++++ (Emax>300)

**Q.** What about the EC50 of the same molecule?
**A.** 0.05 to 0.5 µM

**Q.** What does the source list for Cc1nc2cc([C@H]3CCO[C@@H](c4cnn(C5CC5)c4)C3)nc(-c3ccc(Cl)cc3F)c2c(=O)n1C (single isomer, unassigned) [Example 165]?
**A.** Emax: +++ (Emax>200 and ≤300); EC50: < 0.05 µM

**Q.** What does the source list for Cc1nc2cc(N3CCO[C@@H](c4cnn(C)c4)C3)nc(-c3ccc(Cl)cc3)c2c(=O)n1C [Example 5, 5-(4-chlorophenyl)-2,3-dimethyl-7-((2S)-2-(1-methyl-1H-pyrazol-4-yl)-4-morpholinyl)-pyrido[4,3-d]pyrimidin-4(3H)-one]?
**A.** Emax: ++++ (Emax>300); EC50: 0.05 to 0.5 µM

**Q.** With Cc1nc2cc(N3CC[C@@H](c4cccnc4)C3)nc(-c3ccc(Cl)cc3F)c2c(=O)n1C [Example 260, (S)-5-(4-chloro-2-fluorophenyl)-2,3-dimethyl-7-(3-(pyridin-3-yl)pyrrolidin-1-yl)pyrido[4,3-d]pyrimidin-4(3H)-one] as the molecule, how does the Emax read?
**A.** ++++ (Emax>300)

**Q.** And the EC50?
**A.** 3 to 100 µM

**Q.** Which results are given for Cc1nc2cc(N3C[C@H](C)O[C@@H](c4cnn(C)c4)C3)nc(-c3ccc(Cl)cc3F)c2c(=O)n1C (single isomer, unassigned) [Example 30]?
**A.** Emax: +++ (Emax>200 and ≤300); EC50: 0.5 to 3 µM

**Q.** For Cc1nc2cc(N3C[C@@H](C4CC4)O[C@@H](C)C3)nc(-c3ccc(Cl)cc3F)c2c(=O)n1C (single isomer, unassigned) [Example 37], which Emax is on record?
**A.** ++++ (Emax>300)

**Q.** What about the EC50 of the same molecule?
**A.** 0.05 to 0.5 µM

**Q.** Which results are given for Cc1nccc(C2CN(c3cc4nc(C)n(C)c(=O)c4c(-c4ccc(Cl)cc4F)n3)CCO2)n1 (stereo not drawn) [Example 63, 5-(4-chloro-2-fluorophenyl)-2,3-dimethyl-7-(2-(2-methyl-4-pyrimidinyl)-4-morpholinyl)pyrido[4,3-d]pyrimidin-4(3H)-one]?
**A.** Emax: ++++ (Emax>300); EC50: 0.5 to 3 µM

**Q.** What does the source list for CCCn1c(C)nc2cc(N3CCO[C@H](C(F)(F)F)C3)nc(-c3ccc(Cl)cc3F)c2c1=O [Example 180, (S)-5-(4-chloro-2-fluorophenyl)-2-methyl-3-propyl-7-(2-(trifluoromethyl)morpholino)pyrido[4,3-d]pyrimidin-4(3H)-one]?
**A.** Emax: ++++ (Emax>300); EC50: 0.5 to 3 µM

**Q.** Which Emax does the source give for Cc1nc2cc(N3CCO[C@H](c4ccccn4)C3)nc(-c3ccc(Cl)cc3F)c2c(=O)n1C [Example 209, (S)-5-(4-chloro-2-fluorophenyl)-2,3-dimethyl-7-(2-(pyridin-2-yl)morpholino)pyrido[4,3-d]pyrimidin-4(3H)-one] here?
**A.** +++ (Emax>200 and ≤300)

**Q.** What about the EC50 of the same molecule?
**A.** 0.5 to 3 µM

**Q.** What does the source list for Cc1cc([C@H]2CN(c3cc4nc(C)n(C)c(=O)c4c(-c4ccc(Cl)cc4F)n3)CCO2)cc(C)n1 (single isomer, unassigned) [Example 77]?
**A.** Emax: ++++ (Emax>300); EC50: < 0.05 µM

**Q.** With Cc1nc2cc(N3C[C@@H](C)O[C@H](c4ccsc4)C3)nc(-c3ccc(Cl)cc3F)c2c(=O)n1C (single isomer, unassigned) [Example 74] as the molecule, how does the Emax read?
**A.** + (Emax>45 and ≤100)

**Q.** What about the EC50 of the same molecule?
**A.** 0.5 to 3 µM

**Q.** How did the Emax turn out when Cc1nc2cc(N3CCO[C@@H](c4cnn(C(C)F)c4)C3)nc(-c3ccc(Cl)cc3F)c2c(=O)n1C (stereo partly drawn) [Example 129, 5-(4-chloro-2-fluorophenyl)-7-((2S)-2-(1-(1-fluoroethyl)-1H-pyrazol-4-yl)-4-morpholinyl)-2,3-dimethylpyrido[4,3-d]pyrimidin-4(3H)-one] was run?
**A.** +++ (Emax>200 and ≤300)

**Q.** What about the EC50 of the same molecule?
**A.** < 0.05 µM

**Q.** For Cc1nc2cc(N3CCO[C@H](c4nccs4)C3)nc(-c3ccc(Cl)cc3F)c2c(=O)n1C [Example 198, (S)-5-(4-chloro-2-fluorophenyl)-2,3-dimethyl-7-(2-(thiazol-2-yl)morpholino)pyrido[4,3-d]pyrimidin-4(3H)-one], which Emax is on record?
**A.** ++++ (Emax>300)

**Q.** What about the EC50 of the same molecule?
**A.** 0.5 to 3 µM

**Q.** How did the Emax turn out when Cc1nc2cc([C@@H]3CCO[C@H](c4cnn(C)c4)C3)nc(-c3ccc(Cl)cc3F)c2c(=O)n1C [Example 275, 5-(4-chloro-2-fluorophenyl)-2,3-dimethyl-7-((2S,4R)-2-(1-methyl-1H-pyrazol-4-yl)tetrahydro-2H-pyran-4-yl)pyrido[4,3-d]pyrimidin-4(3H)-one] was run?
**A.** ++ (Emax>100 and ≤200)

**Q.** And the EC50?
**A.** < 0.05 µM

**Q.** For Cc1nc2cc(N3Cc4cccnc4C3)nc(-c3ccc(Cl)cc3F)c2c(=O)n1C [Example 247, 5-(4-chloro-2-fluorophenyl)-7-(5,7-dihydro-6H-pyrrolo[3,4-b]pyridin-6-yl)-2,3-dimethylpyrido [4,3-d]pyrimidin-4(3H)-one], which Emax is on record?
**A.** ++ (Emax>100 and ≤200)

**Q.** What about the EC50 of the same molecule?
**A.** 3 to 100 µM

**Q.** For Cc1nc2cc([C@@H]3CCO[C@H](c4cnn(C5CC5)c4)C3)nc(-c3ccc(Cl)cc3F)c2c(=O)n1C (single isomer, unassigned) [Example 166], which Emax is on record?
**A.** +++ (Emax>200 and ≤300)

**Q.** What about the EC50 of the same molecule?
**A.** 0.5 to 3 µM
